Measurements from ChEMBL document CHEMBL1201862, “PubChem BioAssay data set” (2004).
“And” between values parts separate entries of the source, which are not always exact repeats. Identical values can stand only once.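 Step 1: Grow cells in 96-well plates. Step 2: Expose to compound for 48 hours at 5 concentrations. Step 3: Interpolate endpoints linearly; if unreached, use highest concentration. GI50: concentration for 50% inhibition of growth.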 The source made the active and inactive calls. No stated cut-off is given here; in the data, active = GI50 up to about 1.1 µM and inactive = higher.

Tests used:
Experiment in all cases: DTP human tumour cell line panel, 48 h
PC-3 = test system: PC-3
EKVX = test system: EKVX
UO-31 = test system: UO-31
RXF 393 = test system: RXF 393
TK-10 = test system: TK-10
NCI-H226 = test system: NCI-H226
ACHN = test system: ACHN
OVCAR-5 = test system: OVCAR-5
K562 = test system: K562
SR = test system: SR
DU-145 = test system: DU-145
MCF7 = test system: MCF7
SNB-19 = test system: SNB-19
SW-620 = test system: SW-620
KM12 = test system: KM12
OVCAR-3 = test system: OVCAR-3
MDA-MB-231 = test system: MDA-MB-231
HT-29 = test system: HT-29
HL-60 = test system: HL-60
Hs-578T = test system: Hs-578T

Measured: GI50

C[C@]12CC[C@@H]3c4ccc(O)cc4CC[C@H]3[C@@H]1C/C(=C\c1ccc([N+](=O)[O-])cc1)C2=O
inactive: PC-3 37.2 µM | EKVX 52.6 µM | UO-31 77.1 µM | RXF 393 15.9 µM | TK-10 80 µM | NCI-H226 71.6 µM | ACHN 61.4 µM | OVCAR-5 > 100 µM | K562 99.8 µM | SR 65.3 µM | DU-145 50 µM | MCF7 52.1 µM | SNB-19 > 100 µM | SW-620 > 100 µM | KM12 42.6 µM | OVCAR-3 74 µM | MDA-MB-231 67.6 µM | HT-29 18.6 µM

C[S+]([O-])c1ccc(COP(N)(=O)N(CCCl)CCCl)cc1 (stereo unspecified)
inactive: EKVX > 100 µM | UO-31 > 100 µM | HL-60 > 100 µM | RXF 393 > 100 µM | TK-10 > 100 µM | NCI-H226 > 100 µM | ACHN > 100 µM | OVCAR-5 > 100 µM | K562 > 100 µM | SR > 100 µM | SNB-19 > 100 µM | SW-620 > 100 µM | KM12 > 100 µM | OVCAR-3 > 100 µM | HT-29 > 100 µM

CC(C)(C)OC(=O)NC(CCC(=O)OCc1ccccc1)C(=O)NCCCO (stereo unspecified)
inactive: EKVX > 100 µM | UO-31 > 100 µM | HL-60 > 100 µM | RXF 393 > 100 µM | TK-10 > 100 µM | NCI-H226 > 100 µM | ACHN > 100 µM | OVCAR-5 > 100 µM | K562 > 100 µM | SR > 100 µM | DU-145 > 100 µM | MCF7 > 100 µM | SNB-19 > 100 µM | SW-620 > 100 µM | KM12 > 100 µM | OVCAR-3 > 100 µM | MDA-MB-231 > 100 µM | Hs-578T > 100 µM | HT-29 > 100 µM

CNC(=O)N1CN(c2ccccc2)C2(CCN(CCCC(=O)c3ccc(F)cc3)CC2)C1=O
inactive: PC-3 31.2 µM | EKVX 12.8 µM | UO-31 7.08 µM | HL-60 15.2 µM | RXF 393 20.5 µM | TK-10 18 µM | NCI-H226 25.5 µM | ACHN 11.1 µM | OVCAR-5 11.7 µM | K562 19.5 µM | SR 21.9 µM | DU-145 11.3 µM | MCF7 3.62 µM | SNB-19 17.3 µM | SW-620 27.3 µM | KM12 20.9 µM | OVCAR-3 18.4 µM | MDA-MB-231 25.2 µM | HT-29 5.19 µM

O=c1c(=O)c2c(Br)sc(Br)c2c1=O
inactive: PC-3 19.2 µM | EKVX 20.1 µM | UO-31 33 µM | RXF 393 18.7 µM | TK-10 22.1 µM | NCI-H226 > 100 µM | ACHN 20.6 µM | OVCAR-5 20.3 µM | K562 21.4 µM | SR 20.6 µM | DU-145 > 100 µM | MCF7 20.3 µM | SNB-19 70.6 µM | SW-620 15.8 µM | KM12 > 100 µM | OVCAR-3 18.5 µM | Hs-578T 31 µM | HT-29 25 µM

Cc1c(Cl)cccc1NC(=O)C(=O)C1C(=O)NC(=O)NC1=O
inactive: EKVX > 100 µM | UO-31 > 100 µM | HL-60 > 100 µM | RXF 393 > 100 µM | TK-10 > 100 µM | NCI-H226 > 100 µM | ACHN > 100 µM | OVCAR-5 > 100 µM | K562 > 100 µM | SR > 100 µM | SNB-19 > 100 µM | SW-620 > 100 µM | KM12 > 100 µM | OVCAR-3 > 100 µM | HT-29 > 100 µM

COC(=O)CCC(=O)N1CC1C (stereo unspecified)
inactive: EKVX > 100 µM | UO-31 > 100 µM | HL-60 > 100 µM | RXF 393 > 100 µM | TK-10 > 100 µM | NCI-H226 > 100 µM | ACHN > 100 µM | OVCAR-5 > 100 µM | K562 > 100 µM | SR > 100 µM | SNB-19 > 100 µM | SW-620 > 100 µM | KM12 > 100 µM | OVCAR-3 > 100 µM | HT-29 > 100 µM

CCOc1ccc(NC(=O)C(=O)NO)cc1
inactive: EKVX > 100 µM | UO-31 > 100 µM | HL-60 > 100 µM | RXF 393 > 100 µM | TK-10 > 100 µM | NCI-H226 > 100 µM | ACHN > 100 µM | OVCAR-5 > 100 µM | K562 > 100 µM | SR 55.3 µM | SNB-19 > 100 µM | SW-620 > 100 µM | KM12 > 100 µM | OVCAR-3 > 100 µM | HT-29 > 100 µM

O=C(COc1ccc(Cl)cc1Cl)N/N=C/C=C/c1ccc([N+](=O)[O-])o1
inactive: PC-3 12.6 µM | EKVX 17.5 µM | UO-31 5.05 µM | HL-60 3.76 µM | RXF 393 6.07 µM | TK-10 7.67 µM | NCI-H226 10.5 µM | ACHN 4.63 µM | OVCAR-5 > 100 µM | K562 4.43 µM | MCF7 4.14 µM | SNB-19 9.48 µM | SW-620 5.37 µM | KM12 4.86 µM | OVCAR-3 4.59 µM | MDA-MB-231 6.95 µM | Hs-578T 1.87 µM | HT-29 7.01 µM

COC(=O)C1OC(O[C@H]2CC[C@]3(C)[C@H]4CC=C5[C@@H]6CC(C)(C)CC[C@]6(C(=O)OC6OCC(O)C(O)C6OC6OC(C)C(OC7OCC(O)C(O)C7O)C(O)C6O)CC[C@@]5(C)[C@]4(C)CC[C@H]3C2(C)C)C(O)C(O)C1O (stereo partly specified)
inactive: PC-3 14.4 µM and 15.8 µM | EKVX 17.1 µM | UO-31 13.2 µM and 18.9 µM | HL-60 21.2 µM and 19.1 µM | RXF 393 21.1 µM and 19.5 µM | NCI-H226 19.7 µM and 20.8 µM | OVCAR-5 16.5 µM and 20.7 µM | K562 25.8 µM and 26 µM | SR 13.1 µM and 10.2 µM | DU-145 18 µM and 22.1 µM | MCF7 13.5 µM and 13 µM | SNB-19 13.6 µM and 17.2 µM | SW-620 19.6 µM and 21.9 µM | KM12 15.6 µM and 16.2 µM | OVCAR-3 39.5 µM and 42.8 µM | Hs-578T 18.2 µM and 20.6 µM | HT-29 15.8 µM and 16 µM

COc1ccc2c(c1)CC[C@@H]1[C@@H]2CC[C@]2(C)C(=O)/C(=C/c3ccc(N(C)C)cc3)C[C@@H]12
inactive: PC-3 47.2 µM | EKVX 63.5 µM | UO-31 98.9 µM | HL-60 > 100 µM | RXF 393 27 µM | TK-10 33.2 µM | ACHN 48.9 µM | OVCAR-5 > 100 µM | DU-145 > 100 µM | SNB-19 35.6 µM | SW-620 > 100 µM | KM12 84.3 µM | OVCAR-3 23 µM | MDA-MB-231 55.8 µM

COC(=O)[C@H](Cc1c[nH]c2ccccc12)NP(=O)(O)OCC1C=CC(n2cc(C)c(=O)[nH]c2=O)O1 (stereo partly specified)
inactive: PC-3 > 100 µM | EKVX > 100 µM | HL-60 > 100 µM | NCI-H226 > 100 µM | K562 > 100 µM | DU-145 > 100 µM | SNB-19 > 100 µM | SW-620 > 100 µM | KM12 > 100 µM | OVCAR-3 > 100 µM | MDA-MB-231 > 100 µM | Hs-578T > 100 µM | HT-29 > 100 µM

CN1CCC(CN2c3ccccc3Sc3ccccc32)CC1
inactive: EKVX 14.4 µM | UO-31 10.1 µM | HL-60 13 µM | RXF 393 3.07 µM | TK-10 15.7 µM | NCI-H226 15.4 µM | ACHN 16 µM | OVCAR-5 19.4 µM | K562 13.5 µM | SR 14.1 µM | SNB-19 15.7 µM | SW-620 15.3 µM | KM12 16 µM | OVCAR-3 15.3 µM | HT-29 12.7 µM

Nc1nc(N)c2ncn(-c3ccc(Cl)cc3)c2n1
inactive: PC-3 35.7 µM | EKVX 10.1 µM | UO-31 32.3 µM | HL-60 82 µM | RXF 393 19.3 µM | TK-10 20 µM | NCI-H226 39.1 µM | ACHN 27.7 µM | OVCAR-5 16.7 µM | DU-145 25 µM | MCF7 41.3 µM | KM12 26.8 µM | OVCAR-3 40.6 µM | MDA-MB-231 63.2 µM | HT-29 35.1 µM

COC(=O)[C@H](Cc1c[nH]c2ccccc12)NP(=O)(OCCC#N)OCC1OC(n2cc(C)c(=O)[nH]c2=O)CC1N=[N+]=[N-] (stereo partly specified)
inactive: PC-3 > 100 µM | EKVX > 100 µM | UO-31 > 100 µM | HL-60 > 100 µM | RXF 393 > 100 µM | TK-10 > 100 µM | NCI-H226 > 100 µM | ACHN 50.8 µM | OVCAR-5 > 100 µM | K562 > 100 µM | DU-145 > 100 µM | MCF7 > 100 µM | SNB-19 > 100 µM | SW-620 > 100 µM | KM12 > 100 µM | OVCAR-3 > 100 µM | MDA-MB-231 > 100 µM | HT-29 > 100 µM

O=C(O)c1cc(O)c2c(c1)Cc1cccc(O)c1C2=O
inactive: PC-3 29.2 µM | EKVX 22.1 µM | UO-31 17.4 µM | HL-60 21.1 µM | TK-10 34.4 µM | NCI-H226 24.1 µM | ACHN 15.4 µM | OVCAR-5 29.9 µM | K562 40 µM | SR 26.1 µM | DU-145 36.5 µM | MCF7 30.1 µM | SNB-19 28.6 µM | SW-620 38.5 µM | OVCAR-3 17.9 µM | MDA-MB-231 21.5 µM | HT-29 42.9 µM
